Experimental data from patent EP4282435A1, “FORMULATIONS OF ACTIVE PHARMACEUTICAL INGREDIENTS AND EXCIPIENTS IN ICELLS VIA HYDROPHOBIC ION PAIRING” (Danmarks Tekniske Universitet, priority 2022, dated 2023).
Read-outs that look alike come from different tables or passages of the source. One block for each molecule: values may come before it.

How the values were obtained:
[1] = HIP complexation efficacy of clindamycin (UHPLC of organic phase); type: physicochemical; details: percentage of clindamycin complexed with the named co-ion, 1:1 charge ratio
Protocol: HIP complexation via Bligh-Dyer method: […] Moreover, chloroform and methanol were mixed before the addition of the aqueous clindamycin solution. […] The dried complex was re-suspended in methanol and analyzed by UHPLC to determine the amount of clindamycin. HIP complexation via modified Bligh-Dyer method: […] Next, 4 mL of chloroform were added and the resulting monophase was shaken at 400 rpm at room temperature for 30 min. 4 mL of chloroform followed by 4 mL of water were added to form a biphasic system. Isolation and analysis of the dried complex was done as described beforehand for the Bligh-Dyer method. UHPLC method: Samples were analyzed on a Shimadzu Nexera-X with a PDA detector. Samples were injected (5 μL) onto a Waters Terra XBridge BEH C8 column (2.5 μm, 4.6x75mm, temperature 25 °C) at a flow rate of 1 mL/min.

[2] = In vitro release of clindamycin-HIP complexes from ICell into PBS; type: in vitro ADME; details: clindamycin or its HIP complex with the named co-ion, SuBen:GTH:EtOH (60:20:20) ICell, 20 mg/g, PBS 37°C, after 8 days, mean (n=2)
Protocol: ICell formulation: […] […] In vitro release: 50 μL of each ICell were individually injected in 8-mL glass vials containing 2 mL PBS, for which the exact amount of injected ICell was weighed. The vials were incubated at 37 °C and at each sampling point 1 mL of PBS was taken. 1 mL of fresh buffer was added immediately to the vial to replace the taken sample. The samples were then analyzed by HPLC and the concentration of drug in the release media was calculated. UHPLC method: HPLC analyses were done using a Shimadzu Nexera-X UHPLC instrument with a PDA detector. The samples were injected (40 μL) onto a Waters Terra BEH C8 column (2.5μm, 4.6x75mm, temperature 25°C) at a flow rate of 0.8 mL/min.

[3] = From the text: The chloroform phase was isolated, transferred to a new vial and subsequently chloroform was dried under a gentle flow of nitrogen.
S. aureus strain S54F9 = assay: Microbiological assay, Disc Diffusion Assay; type: cell-based, Staphylococcus aureus; details: 24 hours at 37 °C
Protocol: Then, 3 wells were carved out with the use of the broad side of an autoclaved 1 ml pipette tip.
This setup was repeated for three experimental replicates. Each plate was incubated for 24 hours at 37 °C, before inspection.
Then, 3 wells were carved out with the use of the broad side of an autoclaved 1 ml pipette tip. In one well, 0.5 mg linoleic acid was injected as 90 µl 0.22 µm-sterile-filtered dimethyl sulfoxide. In a second well, 90 µl autoclaved phosphate-buffered saline with 0.5 mg vancomycin hydrochloride was injected. […] The plate was incubated for 24 hours at 37 °C, before inspection.

[4] = HIP complexation of SIINFEKL with SDS (HPLC of supernatant); type: physicochemical
Protocol: (1.5 mg/mL) was dissolved in 0.01 M HCI. […] The […] and co-ion solution were mixed in equal volumes, followed by shaking and centrifugation steps as described in method 1 of example 2. The supernatant was removed the content of […] was evaluated by HPLC.
HPLC method: Samples were analyzed on a Shimadzu Nexera-X with PDA. Samples were injected (40 µL) onto a Waters Terra XBridge BEH C8 column (2.5 µm, 4.6x150mm, temperature 25 °C) at a flow rate of 1 mL/min. The solvent system consisted of mobile phase A (5% MeCN, 0.1% TFA in water) and mobile phase B (0.1% TFA in MeCN). The gradient was 0% B for 1.5 min, 0 to 100% B in 7 min, 100% B for 1.5 min, 100% B to 0% B in 0.5 min, 0% B for 1.5 min. […] was quantified by UV at 220 nm.

[5] = Stability of ICG HIP complexes in ICell (HPLC); type: physicochemical; details: ICG complexed with the named co-ion in SuBen:GTO:EtOH (60:25:15) ICell, 7 weeks in the dark at room temperature, percentage AUC of ICG at 280 nm
Protocol: (§1) For each co-ion, the chloroform phase was isolated and transferred to new glass vials. Chloroform was dried under a gentle flow of nitrogen.
(§2) 1 g of ICell was added to each vial containing the previously isolated ICG HIP complexes. In addition, 1 g of ICell was added to a vial containing 2.5 mg of native ICG.
Stability study: After preparation, ICells were stored at room temperature and protected from light. After 7 weeks, approximately 25 µL of each formulation were taken and dissolved in 500 µL of acetonitrile. The samples were then analyzed by HPLC. HPLC analysis: Samples were analyzed on a Shimadzu Nexera-X HPLC. Samples were injected (5 µL) onto a Waters Terra XBridge BEH C18 column (2.5 µm, 4.6x75mm, temperature 25 °C) at a flow rate of 1 mL/min. The solvent system consisted of mobile phase A (5% MeCN, 0.1% TFA in water) and mobile phase B (0.1% TFA in MeCN). The gradient was 0% B for 1 min, 0 to 100% B in 5 min, 100% B for 4 min, 100% B to 0% B in 0.5 min, 0% B for 1 min. UV detection at 280 nm was used to measure the AUC of ICG and its related degradation products.

[6] = HIP complexation of ICG by method 3 (Bligh-Dyer), judged by colour of the phases; type: physicochemical; details: co-ion:ICG 1:1 molar ratio
Protocol: HIP method 3 (Bligh-Dyer method): ICG (5 mg/mL) was dissolved in a 0.01 M HCI solution. Benethamine, dodecylamine, CTAB and tetraethyl ammonium bromide were used as co-ions. Each co-ion was dissolved in methanol in a 1:1 molar ratio to ICG. In an 8-mL glass vial, 1 mL of chloroform, 2 mL of co-ion solution (methanol), and 1 mL of ICG solution (water) were added in that order (methanol without co-ions was used as a control). The vials was gently shaken (i.e., slowly turned over 2-3 times) and incubated for 45 min at room temperature in the dark. Then 1 mL of water was added followed by 1 mL of chloroform. The vial was gently shaken again and incubated for 45 min at room temperature in the dark. The resulting HIP complex is present in the lower organic phase.
DB36 and ICG are negatively charged molecules, which are very soluble in water, but not in organic solvents such as chloroform. All the used co-ions have a positive charge and they could form hydrophobic ion pairing (HIP) complexes with either DB36 or ICG. When solubilized, DB36 and ICG form dark blue or green solutions, respectively. Thus, successful HIP complexation was assessed by either observing precipitates (for method 1) or a change in coloration in the chloroform phase (for methods 2 and 3). […]

[7] = Solubility of ICG HIP complexes in ICell (visual)
Protocol: as §1, §2

[8] = Effect of co-ions on surface tension of ICell (visual appearance of injected depots); type: physicochemical; details: co-ion alone (2 mM or 10 mM, no ICG) in SuBen:GTH:DMSO or SuBen:GTO:EtOH ICell, in PBS, 7 days at 37°C
Protocol: ICell formulation: A SuBen:GTH:DMSO (60:20:20), SuBen:GTH:DMSO (60:20:15) and a SuBen:GTO:EtOH (60:25:10) ICell were prepared as described in example 4. Effect on surface tension without ICG: TOAB was dissolved in DMSO and EtOH to produce solutions with a concentration of […]. CTAB was dissolved in EtOH to produce solutions with a concentration of […]. 0.03 g of each co-ion solution were individually added to 0.57 g of either a SuBen:GTH:DMSO (60:20:15) or a SuBen:GTO:EtOH (60:25:10) ICell. Thus, the final co-ion concentration in each ICell was 2mM or 10 mM. 50 µL of the previously prepared ICells were injected in glass vials containing 2 mL PBS. The vials were incubated at 37°C during 7 days and the visual appearance of the injected depots was evaluated.
(§3) Chloroform was dried under a gentle flow of nitrogen.
Effect on surface tension with ICG: SuBen:GTH:DMSO (60:20:20) ICell was proportionally added to the previously isolated ICG HIP complexes to obtain formulations with a final ICG concentration of either 0.1 or 2.5 mg/g as described in Table 4. 50 µL of these ICells were injected in glass vials containing 2 mL PBS. The vials were incubated at 37°C during 3 days and the visual appearance of the injected depots was evaluated.

[9] = Solubility and stability of ICG HIP complex in different solvents (HPLC); type: physicochemical; details: native non-complexed ICG in water, 5 days at 25°C in the dark, HPLC 280 nm
Protocol: as §3
HPLC analysis: Samples were analyzed on a Shimadzu Nexera-X HPLC. […] The solvent system consisted of mobile phase A (5% MeCN, 0.1% TFA in water) and mobile phase B (0.1% TFA in MeCN). The gradient was 0% B for 1 min, 0 to 100% B in 5 min, 100% B for 4 min, 100% B to 0% B in 0.5 min, 0% B for 1 min. UV detection at 280 nm was used to measure the AUC of ICG and its related degradation products.

[10] = HIP complexation of gentamicin (HPLC-ELSD of supernatant or aqueous phase); type: physicochemical; details: Bligh-Dyer method, 1:1 charge ratio; gentamicin not detected in aqueous phase
Protocol: HIP complexation via organic-solvent free method: […] A white precipitate was obtained, which corresponded to the HIP complex. The supernatant was removed and its gentamicin content was evaluated by HPLC. […] A sample of the aqueous phase was taken to evaluate its gentamicin content by HPLC. HPLC method: Samples were analyzed on a Shimadzu Nexera-i with an evaporative light scattering detector (ELSD). Samples were injected (5 µL) onto a Waters Terra XBridge BEH C8 column (5 µm, 4.6x150mm, temperature 25 °C) at a flow rate of 1 mL/min.

[11] = remark: listed apart in the source
Protocol: After removing the supernatant, the complex was dissolved in methanol, transferred to a new glass vial and the solvent was dried under a gentle nitrogen flow. […] The chloroform phase was isolated, transferred to a new vial and subsequently chloroform was dried under a gentle flow of nitrogen.

[12] = ICG or its HIP complex with the named co-ion in SuBen:GTO:EtOH (60:25:15) ICell, about 2.5 mg ICG per 1 g ICell, visual

Compound: CCCCCCCC/C=C\CCCCCCCC(=O)[O-].[Na+] [Sodium oleate]
Complexation efficacy Bligh-Dyer method [1]: 72%
Complexation efficacy Modified Bligh-Dyer method [1]: 72%
release of clindamycin from the ICell [2]: 96%

Compound: CC[N+](CC)(CC)CC.[Br-] [Tetraethyl ammonium bromide]
ICG % AUC [5]: 96.3%

Compound: CCCCCCCCCCCCN [Dodecylamine]
ICG complexed [6]: ~100%
solubility in ICell [7]: easily solubilized
ICG % AUC [5]: 95.3%

Compound: CC(=O)NC[C@H]1CN(c2ccc(N3CCOCC3)c(F)c2)C(=O)O1 [linezolid, Linezolid]
antimicrobial activity (clearing zone) after release from ICell (S. aureus strain S54F9; Example 23, 50 µl ICell per well (gentamicin-docusate 20 mg/g, Linezolid 15 mg/g in SuBen:GTO:EtOH (60:25:15))): clearing zone

Compound: CCCCCCC/C=C\C(=O)O [C2DA]
solubility in ICell ([3]; clindamycin or its HIP complex with the named co-ion, SuBen:GTH:EtOH (60:20:20) ICell, clindamycin 20 mg/g, visual): easily solubilized
Complexation efficacy Bligh-Dyer method [1]: 80%
Complexation efficacy Modified Bligh-Dyer method [1]: 72%

Compound: CCCCCCCCCCCCCCCC[N+](C)(C)C [CTAB]
ICG complexed [6]: ~100%
visual appearance of injected ICell depots (surface tension) [8]: had flatten
solubility in ICell [7, 12]: easily solubilized
ICG % AUC [5]: 97.6%

Now from value to molecule, other results behind:

solubility in ICell [3]: easily solubilized
Complexation efficacy Bligh-Dyer method [1]: 64%
Complexation efficacy Modified Bligh-Dyer method [1]: 80%
Compound: CCCCC/C=C\C/C=C\CCCCCCCC(=O)O [Linoleic acid]
antimicrobial activity (clearance of S. aureus) (S. aureus strain S54F9; Example 24, wells: 0.5 mg linoleic acid in DMSO, 0.5 mg vancomycin hydrochloride, 45 µl HIP complex + 45 µl PBS): has an antimicrobial effect, but to an extent lesser than vancomycin

solubility in methanol [4]: soluble
Compound: CC[C@H](C)[C@H](NC(=O)[C@@H](NC(=O)[C@@H](N)CO)[C@@H](C)CC)C(=O)N[C@@H](CC(N)=O)C(=O)N[C@@H](Cc1ccccc1)C(=O)N[C@@H](CCC(=O)O)C(=O)N[C@@H](CCCCN)C(=O)N[C@@H](CC(C)C)C(=O)O [HIP complex of SIINFEKL with SDS]

solubility in methanol [4]: insoluble
Compound: CC[C@H](C)[C@H](NC(=O)[C@@H](NC(=O)[C@@H](N)CO)[C@@H](C)CC)C(=O)N[C@@H](CC(N)=O)C(=O)N[C@@H](Cc1ccccc1)C(=O)N[C@@H](CCC(=O)O)C(=O)N[C@@H](CCCCN)C(=O)N[C@@H](CC(C)C)C(=O)O [SIINFEKL] [reference compound]

solubility in ICell [7, 12]: not soluble
stability [9]: no longer visible in the chromatogram
Compound: CC1(C)C(/C=C/C=C/C=C/C=C2\N(CCCCS(=O)(=O)O)c3ccc4ccccc4c3C2(C)C)=[N+](CCCCS(=O)(=O)[O-])c2ccc3ccccc3c21 [ICG, indocyanine green, reference compound]

gentamicin complexed [10]: 100%
solubility in ICell [11]: easily solubilized
Compound: CCCCC(CC)COC(=O)CC(C(=O)OCC(CC)CCCC)S(=O)(=O)O (stereo not shown) [Sodium docusate]
